In brackets after ≈: the same amount, converted by molar mass. Several values for one entry are separate records, joined by “and”; a condition that tells them apart may be missing. Equal entries are not always repeated. Where two headings read alike, the source gives them in different places.
Key:
[1] = tested on: Pseudomonas aeruginosa; experiment: Broth microdilution MIC (Example 11); assay type: cell-based; conditions: P. aeruginosa MMX 103 (ATCC 27853); QC
[2] = tested on: Burkholderia spp. (B. cepacia complex); experiment: MIC against CF isolates (Example 5); assay type: cell-based; conditions: Table 4A; strain AU197, B. cenocepacia (B cepacia complex)
[3] = tested on: Enterococcus spp. (E. faecalis, E. faecium); experiment: Broth microdilution MIC (Example 11); assay type: cell-based; conditions: enterococci incl. vancomycin-resistant E. faecalis and E. faecium
[4] = tested on: Candida krusei; experiment: Broth microdilution MIC, yeast (Example 13); assay type: cell-based; conditions: for MIC: Pichia kudriavzevii
[5] = tested on: N. gonorrhoeae; experiment: Agar dilution MIC (Example 11); assay type: cell-based, Neisseria gonorrhoeae; conditions: QC isolate, ciprofloxacin-resistant and ceftriaxone non-susceptible isolates
[6] = tested on: beta-hemolytic streptococci (S. pyogenes, S. agalactiae); experiment: Broth microdilution MIC (Example 11); assay type: cell-based, Streptococcus pyogenes, Streptococcus agalactiae
[7] = tested on: Achromobacter spp. biofilm; experiment: Activity against biofilms; conditions: tested up to 250 μg/mL
[8] = tested on: Acinetobacter baumannii; experiment: Broth microdilution MIC (Example 11); assay type: cell-based; conditions: A. baumannii MMX 3373; Sensitive
[9] = tested on: S. aureus ATCC 29213; conditions: S. aureus ATCC 29213, QC organism; cited from earlier work
[10] = tested on: S. aureus ATCC 29213; conditions: CLSI established QC range; cited from earlier work
[11] = Rat single-dose PK: lung tissue BisEDT; conditions: for concentration at 24 h / concentration at 96 h: F344, rat, inhaled, 100 μg/kg
[12] = Aerosol particle size distribution of nebulized suspensions (cascade impactor / APS)
[13] = tested on: Escherichia coli; experiment: Broth microdilution MIC (Example 12)
[14] = tested on: Acinetobacter baumannii; experiment: Broth microdilution MIC (Example 12)
[15] = tested on: Pseudomonas aeruginosa; experiment: Broth microdilution MIC (Example 12)

CC(S)C(C)S.[Bi] (stereo not shown) [BisBDT, bismuth-2,3-butanedithiol]
MIC [1]: 1 µg/mL
MIC [2]: 4 µg/mL
MIC values (range across isolates) [3]: 0.25 to 1 µg/mL
MIC 24 hr, second value of the pair x/y ([4]; C. krusei ATCC 6258 (QC, Table 110), 24 hr, footnote b not given): 1
MIC 48 hr, second value of the pair x/y ([4]; C. krusei ATCC 6258 (QC, Table 110), 48 hr, footnote b not given): 4
MIC 48 hr, first value of the pair x/y ([4]; C. krusei ATCC 6258 (QC, Table 110), 48 hr, footnote b not given, probably MIC2): 1
MIC ([4]; read-out: MIC2 (50% inhibition)): 0.5 µg/mL
MIC ([4]; read-out: MIC2 (50% inhibition), C. krusei MMX 7125, Susceptible): 0.5 µg/mL
MIC ([4]; read-out: MIC2 (50% inhibition), C. krusei MMX 7155, Susceptible): 0.5 µg/mL
MIC ([4]; read-out: MIC2 (50% inhibition), C. krusei MMX 7563, Susceptible): 0.5 µg/mL
MIC ([4]; read-out: MIC2 (50% inhibition), C. krusei MMX 9878, MICA-I, VORI-I): 0.5 µg/mL
MIC values (range across isolates) [5]: 0.06 to 0.25 µg/mL
MIC ([6]; S. agalactiae MMX 3741, ERY^R CC^R): 0.25 µg/mL
MIC ([6]; S. agalactiae MMX 3743, ERY^R CC^R): 0.25 µg/mL
MIC ([6]; S. agalactiae MMX 4077, ERY^R CC^R): 0.25 µg/mL
MIC ([6]; S. agalactiae MMX 4086, ERY^R CC^R): 0.25 µg/mL
MIC values (range across isolates) ([6]; macrolide-resistant S. pyogenes, clindamycin-resistant S. agalactiae): 0.03 to 2 µg/mL
reduction in viable biofilm cells [7]: 5 log
MIC [8]: 0.5 µg/mL

C1C[S][Bi]([S]CC[S][Bi]2[S]CC[S]2)[S]1 [BisEDT, bismuth-1,2-ethanedithiol]
MIC, QC range [9]: (0.12-1) μg/mL
QC Range 24 hr [10]: 0.12-1
concentration at 24 h ([11]; lung fluid): 123 µg/mL
concentration at 96 h ([11]; lung fluid): 78 µg/mL
concentration at 24 h ([11]; lung tissue): 4090 ng/g
concentration at 96 h ([11]; lung tissue): 2600 ng/g
half-life of lung levels ([11]; rat, IV dosing): about 24 hour
lung levels relative to inhalation group ([11]; rat, IV dosing 100 μg/kg): < 5%
lung levels ([11]; rat, oral dosing 250 μg/kg): no lung levels
lung tissue half-life ([11]; rat, single inhalation dose (100 μg/kg lung deposited)): about 4 days
Mean BisEDT Conc, lung at sacrifice ([11]; rat, single inhaled dose 47 μg/kg, sac time 30 hr): 4.8 ng/g
Mean BisEDT Conc, lung at sacrifice ([11]; rat, single inhaled dose 124 μg/kg, sac time 30 hr): 5.9 ng/g
Mean BisEDT Conc, lung at sacrifice ([11]; rat, single inhaled dose 400 μg/kg, sac time 30 hr): 12.1 ng/g
Mean BisEDT Conc, lung at sacrifice ([11]; rat, single inhaled dose 3000 μg/kg, sac time 24 hr): 82.3 ng/g
Particle Size (GSD) ([12]; BisEDT Lot # ED268-1-11-01, formulation 25 mg/mL, APS): 2.98 (1.8) μm
Particle Size (GSD) ([12]; BisEDT Lot # ED268-1-11-01, formulation 50 mg/mL, APS): 2.83 (1.9) μm
Particle Size (GSD) ([12]; BisEDT Lot # ED268-1-11-01, formulation 75 mg/mL, APS): 3.16 (1.70) μm
Particle Size (GSD) ([12]; BisEDT Lot # ED268-1-11-01, formulation 100 mg/mL, APS): 3.53 (1.71) μm
Particle Size (GSD) ([12]; BisEDT Lot # ED268-1-11-01, formulation 100* mg/mL (asterisk not explained), APS): 3.60 (1.71) μm
Particle Size (GSD) ([12]; BisEDT Lot # ED268-1-11-01 suspension, formulation 1 mg/mL, PARI LC PLUS nebulizer, APS): 1.65 (1.6) μm
Particle Size (GSD) ([12]; BisEDT Lot # XL-47-125, 300 mOsmol/kg vehicle, formulation 10 mg/mL): 1.61 (1.65) μm
Particle Size (GSD) ([12]; BisEDT Lot # XL-47-125, 300 mOsmol/kg vehicle, formulation 50 mg/mL): 2.79 (1.69) μm
Particle Size (GSD) ([12]; BisEDT Lot # XL-47-125, 300 mOsmol/kg vehicle, formulation 100 mg/mL (two tests)): 2.90 (1.67) μm and 2.60 (1.65) μm
MMAD ([12]; exposure aerosols of the rat efficacy study, In-Tox Mercer Impactor): 1.54 μm

C[C@@H](O)[C@H]1C(=O)N2C(C(=O)O)=C(S[C@@H]3CN[C@H](C(=O)N(C)C)C3)[C@H](C)[C@H]12 [MEM]
MIC ([13]; E. coli ATCC 25922, QC organism): ≤0.008 µg/mL
MIC ([13]; E. coli ATCC 35218, QC organism): ≤0.008 µg/mL
MIC ([13]; Escherichia coli ATCC 35218, ESBL): ≤0.008 µg/mL
MIC ([13]; Escherichia coli ATCC BAA-2471, NDM): >8 µg/mL
MIC ([13]; Escherichia coli CDC 114, ESBL/KPC): 2 µg/mL (≈ 5.22 µM)
MIC ([13]; Escherichia coli CDC 118, ESBL/NDM): 0.06 µg/mL (≈ 0.156 µM)
MIC ([13]; Escherichia coli CDC 435, NDM): >8 µg/mL
MIC ([13]; Escherichia coli CDC 451, KPC): 1 µg/mL (≈ 2.61 µM)
MIC ([13]; Escherichia coli CDC 503, ESBL/NDM): 8 µg/mL (≈ 20.9 µM)
MIC ([13]; Escherichia coli MMX 5745, KPC): 2 µg/mL (≈ 5.22 µM)
MIC ([13]; Escherichia coli MMX 5755, ESBL): 0.015 µg/mL (≈ 0.0391 µM)
MIC ([13]; Escherichia coli MMX 5756, ESBL): ≤0.008 µg/mL
MIC ([13]; Escherichia coli MMX 5758, ESBL): ≤0.008 µg/mL
MIC ([14]; Acinetobacter baumannii CDC 273, ESBL/OXA): >8 µg/mL
MIC ([14]; Acinetobacter baumannii CDC 274, ESBL/OXA): >8 µg/mL
MIC ([14]; Acinetobacter baumannii CDC 275, ESBL/OXA): >8 µg/mL
MIC ([14]; Acinetobacter baumannii CDC 277, ESBL/OXA): >8 µg/mL
MIC ([14]; Acinetobacter baumannii CDC 284, ESBL/OXA): >8 µg/mL
MIC ([14]; Acinetobacter baumannii CDC 307, OXA): 8 µg/mL (≈ 20.9 µM)
MIC ([14]; Acinetobacter baumannii CDC 308, ESBL/OXA): 8 µg/mL (≈ 20.9 µM)
MIC ([14]; Acinetobacter baumannii CDC 311, OXA): >8 µg/mL
MIC ([14]; Acinetobacter baumannii CDC 312, OXA): 4 µg/mL (≈ 10.4 µM)
MIC ([14]; Acinetobacter baumannii CDC 313, ESBL/OXA): >8 µg/mL
MIC ([14]; Acinetobacter baumannii NCTC 13304, OXA): >8 µg/mL
MIC ([15]; P. aeruginosa ATCC 27853, QC organism): 0.25 µg/mL (≈ 0.652 µM)
MIC ([15]; Pseudomonas aeruginosa CDC 230, VIM/OXA): >8 µg/mL
MIC ([15]; Pseudomonas aeruginosa CDC 231, KPC/OXA): >8 µg/mL
MIC ([15]; Pseudomonas aeruginosa CDC 241, IMP/OXA): >8 µg/mL
MIC ([15]; Pseudomonas aeruginosa CDC 246, NDM/OXA): >8 µg/mL
MIC ([15]; Pseudomonas aeruginosa CDC 250, NDM/OXA): >8 µg/mL
MIC ([15]; Pseudomonas aeruginosa CDC 356, KPC): >8 µg/mL
MIC ([15]; Pseudomonas aeruginosa CDC 439, IMP): >8 µg/mL
MIC ([15]; Pseudomonas aeruginosa CDC 444, VIM): >8 µg/mL
MIC ([15]; Pseudomonas aeruginosa CDC 457, VIM): >8 µg/mL
MIC ([15]; Pseudomonas aeruginosa CDC 516, KPC/AmpC): >8 µg/mL
MIC ([15]; Pseudomonas aeruginosa CDC 518, KPC/AmpC): >8 µg/mL
